Measurements reported in patent publication US20180360786A1, “(R)-CARBIDOPA ALONE OR IN COMBINATION WITH A STEROID FOR TREATING PAIN, INFLAMMATION, AN INFLAMMATORY DISEASE, AN IMMUNE OR AUTOIMMUNE DISEASE AND TUMOUR GROWTH” (PROXIMAGEN GROUP LIMITED, priority 2015, published 2018).
Like-named read-outs stand apart in the source and are kept apart here.

Legend:
human VAP-1 (SSAO) = target: T1, human VAP-1 (SSAO) (Homo sapiens, UniProt Q16853); experiment: In vitro determination of human VAP-1 (SSAO) inhibition (HRP-coupled Amplex Red, benzylamine substrate); type: biochemical; details: for IC50: purified recombinant human VAP-1 (SSAO), benzylamine 100 μM, room temperature, about 15 min pre-incubation
T1 construct: made in house
T1 sequence (Q16853 29-763 limits assumed): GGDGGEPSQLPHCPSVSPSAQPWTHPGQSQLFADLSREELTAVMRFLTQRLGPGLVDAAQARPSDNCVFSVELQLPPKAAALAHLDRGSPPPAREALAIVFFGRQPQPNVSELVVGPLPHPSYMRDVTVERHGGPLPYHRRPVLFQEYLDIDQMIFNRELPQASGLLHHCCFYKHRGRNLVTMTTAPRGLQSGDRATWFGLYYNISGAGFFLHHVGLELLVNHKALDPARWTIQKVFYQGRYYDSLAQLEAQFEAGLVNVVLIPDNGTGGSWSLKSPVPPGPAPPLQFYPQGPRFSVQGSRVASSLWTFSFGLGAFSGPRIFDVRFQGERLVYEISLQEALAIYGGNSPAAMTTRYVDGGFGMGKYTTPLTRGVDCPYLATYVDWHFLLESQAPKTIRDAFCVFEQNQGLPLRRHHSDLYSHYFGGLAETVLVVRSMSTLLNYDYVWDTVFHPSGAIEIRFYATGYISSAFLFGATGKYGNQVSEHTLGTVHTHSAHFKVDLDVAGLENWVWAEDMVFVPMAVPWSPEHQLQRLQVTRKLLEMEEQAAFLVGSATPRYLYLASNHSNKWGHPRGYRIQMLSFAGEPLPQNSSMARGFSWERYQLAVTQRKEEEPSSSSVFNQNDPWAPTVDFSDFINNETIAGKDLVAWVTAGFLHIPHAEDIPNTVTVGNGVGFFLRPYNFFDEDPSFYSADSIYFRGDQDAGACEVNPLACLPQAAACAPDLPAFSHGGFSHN
Description: This assay is performed at room temperature with purified recombinantly expressed human VAP-1 (SSAO). Enzyme was prepared essentially as described in Ohman et al. (Protein Expression and Purification 46 (2006) 321-331). The enzyme activity is assayed with benzylamine as substrate by utilizing the production of hydrogen peroxide in a horseradish peroxidise (HRP) coupled reaction. Briefly, test compounds are dissolved in dimethyl sulfoxide (DMSO) to a concentration of 10 mM. Dose-response measurements are assayed by either creating 1:10 serial dilutions in DMSO to produce a 7 point curve or by making 1:3 serial dilutions in DMSO to produce 11 point curves. The top concentrations are adjusted depending on the potency of the compounds and subsequent dilution in reaction buffer yielded a final DMSO concentration ≤2%.
In a horseradish peroxidise (HRP) coupled reaction, hydrogen peroxide oxidation of 10-acetyl-3,7-dihydroxyphenoxazine produces resorufin, which is a highly fluorescent compound (Zhout and Panchuk-Voloshina. Analytical Biochemistry 253 (1997) 169-174; AmplexR Red Hydrogen Peroxide/peroxidise Assay kit, Invitrogen A22188). Enzyme and compounds in 50 mM sodium phosphate, pH 7.4 are set to pre-incubate in flat-bottomed microtiter plates for approximately 15 minutes before initiating the reaction by addition of a mixture of HRP, benzylamine and Amplex reagent. Benzylamine concentration is fixed at a concentration corresponding to the Michaelis constant, determined using standard procedures. Fluorescence intensity is then measured at several time points during 1-2 hours, exciting at 544 nm and reading the emission at 590 nm. […] The inhibition is measured as % decrease of the signal compared to a control without inhibitor (only diluted DMSO). […] Data is fitted to a four parameter logistic model and IC50 values are calculated, for example by using the GraphPad Prism 4 or XLfit 4 programs.

[1] = target: T2, human aromatic L-amino acid decarboxylase (DOPA decarboxylase) (Homo sapiens, UniProt P20711); experiment: In vitro determination of human aromatic L-amino acid decarboxylase (DOPA decarboxylase) inhibition; type: biochemical; details: recombinant human DOPA decarboxylase, 500 μM L-Dopa, 60 min pre-incubation
T2 construct: purchased R&D systems 3564-DC
T2 sequence (P20711 1-480): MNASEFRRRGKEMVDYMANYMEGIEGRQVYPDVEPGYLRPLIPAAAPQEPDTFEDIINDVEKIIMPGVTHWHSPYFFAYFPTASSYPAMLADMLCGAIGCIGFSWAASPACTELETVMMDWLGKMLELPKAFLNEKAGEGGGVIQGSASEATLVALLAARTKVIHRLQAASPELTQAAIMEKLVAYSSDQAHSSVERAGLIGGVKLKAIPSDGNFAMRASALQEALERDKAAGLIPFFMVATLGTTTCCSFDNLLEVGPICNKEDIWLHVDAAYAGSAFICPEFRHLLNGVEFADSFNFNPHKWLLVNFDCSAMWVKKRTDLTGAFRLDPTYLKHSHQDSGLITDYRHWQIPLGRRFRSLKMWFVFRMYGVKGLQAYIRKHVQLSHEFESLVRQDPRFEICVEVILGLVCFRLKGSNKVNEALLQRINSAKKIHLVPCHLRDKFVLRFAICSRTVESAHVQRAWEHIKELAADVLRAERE
Description: The enzyme reaction of human DOPA decarboxylase was carried out according to the manufacture instructions (R&D systems cat#3564-DC). The assay measured the ability of recombinant human DOPA decarboxylase to convert L-Dopa to dopamine. The dopamine product was measured by its absorbance at 340 nm after derivatization with trinitrobenzene sulphuric acid. Briefly, the reaction was carried out in 50 mM HEPES buffer containing 100 mM NaCl pH 7.2 for 30 min and stopped by inactivation of the enzyme at 95° C. for 2 min. The inhibitory assay was performed by measuring the decarboxylase activity of DOPA decarboxylase with 0.8 μg enzyme, 500 μM L-Dopa, and 100 μM pyridoxal phosphate in the presence or absence of a fixed amount of each compound. Test compounds were pre-incubated for 60 min with DOPA decarboxylase before initiating the assay with the addition of the substrate L-DOPA. Dose response curves were generated to determine the concentration required to inhibit 50% of decarboxylase activity (IC50). Compounds were evaluated in duplicate at 7 concentrations. IC50 values were derived by nonlinear regression analysis.

CFA induced paw oedema = CFA induced paw oedema in rat, paw volume (plethysmometer); type: in vivo; details: dosed 24 hours post CFA, 3 hours post treatment
Description: (§1) Assessment of the anti-hyperalgesic properties of (R)-Carbidopa was determined through measurement of weight bearing following CFA induced hypersensitivity. Naive rats distribute their body weight equally between the two hind paws. However, when the injected (left) hind paw is painful, the weight is re-distributed so that less weight is put on the affected paw (decrease in weight bearing on injured paw). Weight bearing through each hind limb was measured using a rat incapacitance tester (Linton Instruments, UK). Rats were placed in the incapacitance tester with the hind paws on separate sensors and the average force exerted by both hind limbs was recorded over 4 seconds. The injection of CFA also induces an oedema that can be assessed by paw volume; this is measured using a plethysmometer. […] Data were analysed by comparing treatment groups to the vehicle control group at each time point. Weight bearing (g) readings were taken for both right and left hind paws and the difference calculated. Data is expressed as % reversal of the hypersensitivity to pain. Paw Volume (mL) readings were taken for the left hind paws. Data are expressed as % reversal of the oedema. Calculation: (post dose reading−pre dose reading)/(naïve reading−pre dose reading)×100, where naive weight bearing difference−pre dose weight bearing difference is defined as the CFA window to be reversed. […]

[2] = tested on: CFA induced hypersensitivity; experiment: CFA induced hypersensitivity in rat, weight bearing (incapacitance tester); type: in vivo; details: dosed 24 hours post CFA, 1 and 3 hours post treatment
Description: as §1, with “plethysmometer. The rat's hind paw is placed into the cylinder containing a solution and the volume of displaced liquid determines the paw volume. Naive male, Sprague Dawley rats were acclimatised with food and water available ad libitum. Habituation to the incapacitance tester was performed. Baseline weight bearing and paw volume recordings were taken prior to induction of insult. Inflammatory hypersensitivity was induced by intraplantar injection of CFA (100 μl of 1 mg/ml solution) into the left hind paw. A pre-treatment weight bearing and paw volume measurement was taken to assess hypersensitivity 23 hours post-CFA. Animals were then ranked and randomised according to CFA window in a Latin square design.” for “plethysmometer.”

C[C@](Cc1ccc(O)c(O)c1)(NN)C(=O)O (single isomer, unassigned) [(S)-Carbidopa]
IC50 (human VAP-1 (SSAO)): 142 nM
IC50 ([1]; read-out: IC50 for inhibition of human aromatic L-amino acid decarboxylase): 190 nM

C[C@](Cc1ccc(O)c(O)c1)(NN)C(=O)O [(R)-Carbidopa, (R)-carbidopa]
selectivity for SSAO/VAP-1 over the enzyme DOPA decarboxylase (human VAP-1 (SSAO); comparison of VAP-1 and DOPA decarboxylase inhibition): surprising selectivity
IC50 (human VAP-1 (SSAO)): 148 nM
reduction of paw volume (oedema), Part A, FIG. 2 (CFA induced paw oedema; 3-30 mg/kg alone): significant reduction of paw volume
IC50 ([1]; did not inhibit up to the maximum concentration tested, read-out: inhibition of human aromatic L-amino acid decarboxylase (IC50)): > 3000 nM
inhibition of the hypersensitivity response (weight bearing), Part A, FIG. 1 ([2]; 3-30 mg/kg alone): dose-dependently inhibited the hypersensitivity response

COc1ccc2c(c1)c(CC(=O)O)c(C)n2C(=O)c1ccc(Cl)cc1 [Indomethacin, indomethacin]
reduction of paw oedema (CFA induced paw oedema; indomethacin 10 mg/kg): significant reduction on paw oedema
reversal of the hypersensitivity measured using weight bearing ([2]; indomethacin 10 mg/kg): marked reversal of the hypersensitivity

C[C@]12C=CC(=O)C=C1CC[C@@H]1[C@@H]2[C@@H](O)C[C@@]2(C)[C@H]1CC[C@]2(O)C(=O)CO [Prednisolone, prednisolone]
inhibition of the hypersensitivity response (weight bearing), Part B, FIG. 3 ([2]; 0.3-10 mg/kg alone): dose-dependently inhibited the hypersensitivity response
